Columns and labels:
HAase [1] = experiment: HA gel model of HAase inhibition-based kinetic viscoelastic profile measurement; type: biochemical
Protocol: Hyaluronidase inhibition activity was evaluated in a HA gel model of HAase inhibition-based kinetic viscoelastic profile measurement. According to the experimental design, various individual controls and known HAase inhibitors were tested (alone and in combination). In this model, HAase was introduced into a gel composed of HA. Upon exposure, the HAase decomposes the HA gel in a time dependent manner which is directly correlated to the viscosity of the HA gel. Test compounds were introduced to the HA gel system and degree of HAase inhibition as gauged by measuring viscosity (change in viscosity) over time.
At each time point, % of Viscosity Loss is compared to the viscosity of HA gel without enzyme.
To describe the synergy clearly, the “inhibition factor,” below, reflects the extent of inhibition of HAase activity, where n=viscosity: […]

hyaluronidase (HAase) = experiment: in vitro dose screening assay of HAase inhibitors; type: biochemical
Protocol: Antioxidants having known hyaluronidase inhibition properties were tested in vitro to establish baseline inhibition. Referring now to the drawings, selected results are shown in the table of FIG. 1, with the known HAase inhibitor Apigenin as a positive control.

HAase [2] = details: stated as known; cited from earlier work
[3] = solubility / formulation observation; type: physicochemical

SMILES	inhibition of hyaluronidase in gel model (in words) (HAase [1])	inhibition of HAase (in words) (hyaluronidase (HAase); concentration of 0.05 mg/mL)	dose effect on HAase inhibition (hyaluronidase (HAase); up to testing dose of 0.5 mg/ml)	inhibition of HAase (known) (HAase [2])	solubility (in words) [3]	inhibition of HAase (in words) (hyaluronidase (HAase); in vitro assay)
CC1(C)[C@@H](O[C@H]2O[C@H](C(=O)[O-])[C@@H](O)[C@H](O)[C@H]2O[C@@H]2O[C@H](C(=O)[O-])[C@@H](O)[C@H](O)[C@H]2O)CC[C@]2(C)[C@H]3C(=O)C=C4[C@@H]5C[C@@](C)(C(=O)O)CC[C@]5(C)CC[C@@]4(C)[C@]3(C)CC[C@@H]12.[K+].[K+] [dipotassium glycyrrhizate]	very mild effect	mild inhibitors	no clear dose effect	–	–	–
O=C(OC[C@H]1O[C@@H](OC(=O)c2cc(O)c(O)c(OC(=O)c3cc(O)c(O)c(O)c3)c2)[C@H](OC(=O)c2cc(O)c(O)c(OC(=O)c3cc(O)c(O)c(O)c3)c2)[C@@H](OC(=O)c2cc(O)c(O)c(OC(=O)c3cc(O)c(O)c(O)c3)c2)[C@@H]1OC(=O)c1cc(O)c(O)c(OC(=O)c2cc(O)c(O)c(O)c2)c1)c1cc(O)c(O)c(OC(=O)c2cc(O)c(O)c(O)c2)c1 [tannic acid]	–	–	–	super-efficient inhibitor	highly insoluble	very potent inhibitor

From patent US20180177706A1, “COMPOSITIONS CONTAINING HYALURONIC ACID AND SYNERGISTIC ANTI-HYALURONIDASE ACTIVES” (L'OREAL, priority 2016, published 2018)
